“Also recorded” adds a separate entry of the source.

One compound from patent US20070219243A1, “Method for improving the pharmacokinetics of HIV integrase inhibitors” (priority 2005, published 2007) can be followed below.

The test system of one data set is HIV-1. Put plainly: Example 2: exposure-response (Emax model) and inhibitory quotient. In kind it is in vivo. Particulars: simple Emax model on Ctau.
The conditions of data set [1]: in vivo. The procedure: Pharmacokinetic (PK) blood draws were performed on days 7, 17, and 27.
The target in another data set is HIV-1 integrase (Human immunodeficiency virus type 1 group M subtype B, UniProt P04585). The conditions noted are these: after 10 days of monotherapy; through Day 21.

`COc1cc2c(cc1Cc1cccc(Cl)c1F)c(=O)c(C(=O)O)cn2[C@H](CO)C(C)C` [Compound 1, 6-(3-chloro-2-fluorobenzyl)-1-[(2S)-1-hydroxy-3-methylbutan-2-yl]-7-methoxy-4-oxo-1,4-dihydroquinoline-3-carboxylic acid]: the Emax in the data set with HIV-1 is 2.32 log10 copies/mL reduction from baseline. Further, the “PK (Cmax, AUCtau, Ctau) during co-administration vs alone” value in data set [1] is listed as “unaffected”. Also, the “HIV-1 integrase mutations corresponding to Compound 1 resistance” value on HIV-1 integrase is given as “no subject developed HIV-1 integrase mutations; also recorded: No Compound 1 resistance mutations were detected”.
